Measurements: US9512120B2, “Microbicidally active imidazopyridine derivatives” (Syngenta Participations AG, priority 2013, dated 2016)

Tests used:
[1] = test system: Thanatephorus cucumeris (Rhizoctonia solani); assay: Thanatephorus cucumeris (Rhizoctonia solani) / liquid culture (foot rot, damping-off); format: cell-based; conditions: PDB, 24° C., 3-4 days after application, read-out: control of Thanatephorus cucumeris (inhibition of growth, photometric)
Method in brief: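 At 200 ppm, compounds in DMSO were combined with fresh liquid-culture mycelia in PDB and kept at 24° C; photometric measurement of growth inhibition after 3-4 days.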

Fusarium culmorum = assay: microbe, parasite or virus in culture; format: cell-based; conditions: read-out: control of Fusarium culmorum (inhibition of growth, photometric)
[2] = test system: Monographella nivalis (Microdochium nivale); assay: Monographella nivalis (Microdochium nivale) / liquid culture (foot rot cereals); format: cell-based; conditions: PDB, 24° C., 4-5 days after application, read-out: control of Monographella nivalis (inhibition of growth, photometric)
Method in brief: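 Cryostored conidia in potato dextrose broth were added to test compound dispensed from DMSO at 200 ppm. Plates were kept at 24° C, and growth inhibition was read photometrically 4-5 days after application.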

Sclerotinia sclerotiorum = Sclerotinia sclerotiorum liquid culture (cottony rot / white mold); format: cell-based; conditions: PDB, 24° C., 3-4 days after application, read-out: control of Sclerotinia sclerotiorum (inhibition of growth, photometric)
Method in brief: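 Mycelia fragments of Sclerotinia sclerotiorum in potato dextrose broth were added to compound in DMSO. Cultures incubated at 24° C; growth inhibition determined photometrically 3-4 days after application.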

Plasmopara viticola = Plasmopara viticola / grape / leaf disc preventative; format: in vivo; conditions: foliar, grape vine leaf disks, inoculated 1 day after application, assessed 6-8 days after application, read-out: control of Plasmopara viticola (percent disease control compared to untreated)
[3] = test system: Mycosphaerella graminicola (Septoria tritici); assay: Mycosphaerella graminicola (Septoria tritici) / liquid culture (Septoria blotch); format: cell-based; conditions: Zymoseptoria tritici, PDB, 24° C., 4-5 days after application, read-out: control of Mycosphaerella graminicola (inhibition of growth, photometric)
Method in brief: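 Growth inhibition was read photometrically after 4–5 days at 24 °C. The test compound was applied at 200 ppm from DMSO solution, then PDB broth seeded with conidia taken straight from cryogenic storage was added.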

[4] = test system: Mycosphaerella arachidis (Cercospora arachidicola); assay: Mycosphaerella arachidis (Cercospora arachidicola) / liquid culture (early leaf spot); format: cell-based; conditions: PDB, 24° C., 4-5 days after application, read-out: control of Mycosphaerella arachidis (inhibition of growth, photometric)
Method in brief: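 Conidia suspended in potato dextrose broth and added to test compound from DMSO solution at 200 ppm. Incubated at 24 °C; growth inhibition read photometrically 4-5 days after application.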

Pyrenophora teres = Pyrenophora teres / barley / leaf disc preventative (net blotch); format: in vivo; conditions: foliar, barley leaf segments cv Hasso, inoculated two days after application, assessed 5-7 days after application, read-out: control of Pyrenophora teres (disease control compared to untreated)
Method in brief: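 Preventative leaf-disc test: 200 ppm spray, then spore inoculation after two days on barley cv Hasso segments. Incubation 20 °C, 65% relative humidity, 12 h light/12 h dark; efficacy rated against untreated checks at 5-7 days post-application.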

[5] = test system: Botryotinia fuckeliana (Botrytis cinerea); assay: Botryotinia fuckeliana (Botrytis cinerea) / liquid culture (gray mould); format: cell-based; conditions: Vogels broth, 24° C., 3-4 days after application, read-out: control of Botryotinia fuckeliana (inhibition of growth, photometric)
Method in brief: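 Test compound was applied at 200 ppm in DMSO, then Vogels nutrient broth containing cryo-stored B. cinerea conidia was added. Photometric growth-inhibition reading followed after 3-4 days at 24 °C.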

Gaeumannomyces graminis = Gaeumannomyces graminis / liquid culture (take-all of cereals); format: cell-based; conditions: PDB, 24° C., 4-5 days after application, read-out: control of Gaeumannomyces graminis (inhibition of growth, photometric)
Method in brief: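 Growth inhibition, measured by photometry 4-5 days post-application at 24 °C, of fungal mycelial fragments in PDB broth. Test compound applied as DMSO solution at 200 ppm.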

Pythium ultimum = Pythium ultimum / liquid culture (seedling damping off); format: cell-based; conditions: Globisporangium ultimum, potato dextrose broth, 24° C., 2-3 days after application, read-out: control of Pythium ultimum (inhibition of growth, photometric)
Procedure: Pythium ultimum/Liquid Culture (Seedling Damping Off) Mycelia fragments and oospores of a newly grown liquid culture of the fungus were directly mixed into nutrient broth (potato dextrose broth). After placing a DMSO solution of test compound into a 96-well format microtiter plate at an application rate of 200 ppm, the nutrient broth containing the fungal mycelia/spore mixture was added. The test plates were incubated at 24° C. and the inhibition of growth was determined photometrically 2-3 days after application.

[6] = test system: Phaeosphaeria nodorum (Septoria nodorum); assay: Phaeosphaeria nodorum (Septoria nodorum) / wheat / leaf disc preventative (glume blotch); format: in vivo; conditions: Parastagonospora nodorum, foliar, wheat leaf segments cv Kanzler, inoculated 2 days after application, assessed 5-7 days after application, read-out: control of Phaeosphaeria nodorum (percent disease control compared to untreated)
Method in brief: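 Wheat leaf segments (cv Kanzler) on agar sprayed with compound at 200 ppm, inoculated with spores 2 days later. Incubated at 20° C., 75% relative humidity, 12/12 h light/dark; percent disease control versus untreated scored 5-7 days after application.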

[7] = test system: Glomerella lagenarium (Colletotrichum lagenarium); assay: Glomerella lagenarium (Colletotrichum lagenarium) / liquid culture (anthracnose); format: cell-based; conditions: Colletotrichum orbiculare, PDB, 24° C., 3-4 days after application, read-out: control of Glomerella lagenarium (inhibition of growth, photometric)
Method in brief: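 Test compound, delivered in DMSO at an application rate of 200 ppm, was combined with spore-containing PDB. Photometric growth-inhibition measurement followed 3-4 days of incubation at 24° C.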

[8] = test system: Puccinia recondita f. sp. Tritici; assay: Puccinia recondita f. sp. tritici / wheat / leaf disc preventative (brown rust); format: in vivo; conditions: foliar, wheat leaf segments cv Kanzler, inoculated 1 day after application, assessed 7-9 days after application, read-out: control of Puccinia recondita f. sp. Tritici (percent disease control compared to untreated)
Method in brief: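 Preventative test: percent disease control relative to untreated leaf segments was assessed 7-9 days post-application. Wheat (cv Kanzler) leaf discs were treated at 200 ppm and spore-inoculated 1 day afterwards. Discs were held at 19° C and 75% relative humidity under a 12/12 h light cycle.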

Row | SMILES | inhibition at 20 ppm [1] [%] | inhibition at 20 ppm (Fusarium culmorum) [%] | inhibition at 20 ppm [2] [%] | inhibition at 20 ppm (Sclerotinia sclerotiorum) [%] | pest or weed control at 200 ppm (Plasmopara viticola) [%] | inhibition at 20 ppm [3] [%] | inhibition at 20 ppm [4] [%] | pest or weed control at 200 ppm (Pyrenophora teres) [%] | inhibition at 20 ppm [5] [%] | inhibition at 20 ppm (Gaeumannomyces graminis) [%] | inhibition at 20 ppm (Pythium ultimum) [%] | pest or weed control at 200 ppm [6] [%] | inhibition at 20 ppm [7] [%] | pest or weed control at 200 ppm [8] [%] | melting point [°C]
1 | C/C=C/CO/N=C(/C)c1cncc2nc(-n3ncnc3N)n(CC)c12 [Compound 176] | ≥ 80 | ≥ 80 | ≥ 80 | ≥ 80 | ≥ 80 | ≥ 80 | ≥ 80 | ≥ 80 | ≥ 80 | ≥ 80 | ≥ 80 | ≥ 80 |  |  | 
2 | CCCCCCO/N=C(/C)c1cncc2nc(-n3ncnc3N)n(CC)c12 [Compound 147] | ≥ 80 | ≥ 80 | ≥ 80 | ≥ 80 |  | ≥ 80 | ≥ 80 | ≥ 80 | ≥ 80 |  |  | ≥ 80 | ≥ 80 | ≥ 80 | 
3 | C=C(OCC)c1cncc2nc(-n3ncnc3N)n(CC)c12 [Compound 74, 2-[7-(1-ethoxyethenyl)-1-ethylimidazo[4,5-c]pyridin-2-yl]-1,2,4-triazol-3-amine] | ≥ 80 | ≥ 80 | ≥ 80 | ≥ 80 |  | ≥ 80 | ≥ 80 | ≥ 80 | ≥ 80 | ≥ 80 |  | ≥ 80 | ≥ 80 | ≥ 80 | 193 to 195
4 | CCn1c(-n2ncnc2N)nc2cncc(Br)c21 [Compound 15, 2-(7-bromo-1-ethylimidazo[4,5-c]pyridin-2-yl)-1,2,4-triazol-3-amine] | ≥ 80 | ≥ 80 | ≥ 80 | ≥ 80 |  | ≥ 80 | ≥ 80 | ≥ 80 | ≥ 80 | ≥ 80 |  | ≥ 80 | ≥ 80 | ≥ 80 | 231 to 232
5 | CCn1c(-n2ncnc2N)nc2cncc(-c3ccc(F)cc3Cl)c21 [Compound 101, 2-[7-(2-chloro-4-fluorophenyl)-1-ethylimidazo[4,5-c]pyridin-2-yl]-1,2,4-triazol-3-amine] | ≥ 80 | ≥ 80 | ≥ 80 | ≥ 80 |  | ≥ 80 | ≥ 80 | ≥ 80 | ≥ 80 | ≥ 80 | ≥ 80 | ≥ 80 | ≥ 80 | ≥ 80 | 
6 | C=Cc1cncc2nc(-n3ncnc3N)n(CC)c12 [Compound 106, 2-(7-ethenyl-1-ethylimidazo[4,5-c]pyridin-2-yl)-1,2,4-triazol-3-amine] | ≥ 80 | ≥ 80 | ≥ 80 | ≥ 80 |  | ≥ 80 | ≥ 80 | ≥ 80 | ≥ 80 | ≥ 80 | ≥ 80 |  |  |  | 178 to 186
7 | CCn1c(-n2ncnc2N)nc2cncc(C#CC3CC3)c21 [Compound 123, 2-[7-(2-cyclopropylethynyl)-1-ethylimidazo[4,5-c]pyridin-2-yl]-1,2,4-triazol-3-amine] | ≥ 80 | ≥ 80 | ≥ 80 | ≥ 80 |  | ≥ 80 | ≥ 80 | ≥ 80 | ≥ 80 | ≥ 80 |  | ≥ 80 | ≥ 80 | ≥ 80 | 188 to 192
8 | CCCn1c(-n2ncnc2N)nc2cncc(/C(C)=N\OC/C=C/Cl)c21 [Compound 182] | ≥ 80 | ≥ 80 | ≥ 80 | ≥ 80 | ≥ 80 | ≥ 80 | ≥ 80 | ≥ 80 | ≥ 80 |  |  | ≥ 80 |  | ≥ 80 | 
9 | CCn1c(-n2ncnc2N)nc2cncc(-c3ccc(OC)cc3F)c21 [Compound 96, 2-[1-ethyl-7-(2-fluoro-4-methoxyphenyl)imidazo[4,5-c]pyridin-2-yl]-1,2,4-triazol-3-amine] | ≥ 80 | ≥ 80 | ≥ 80 | ≥ 80 |  | ≥ 80 |  | ≥ 80 | ≥ 80 | ≥ 80 | ≥ 80 | ≥ 80 | ≥ 80 | ≥ 80 | 
10 | CCCn1c(-n2ncnc2N)nc2cncc(/C(C)=N\OC/C=C\Cl)c21 [Compound 180] | ≥ 80 | ≥ 80 | ≥ 80 | ≥ 80 | ≥ 80 | ≥ 80 | ≥ 80 | ≥ 80 | ≥ 80 | ≥ 80 | ≥ 80 |  |  | ≥ 80 | 
11 | CCCn1c(-n2ncnc2N)nc2cncc(/C(C)=N\OC/C=C(\C)Cl)c21 [Compound 184] | ≥ 80 | ≥ 80 | ≥ 80 | ≥ 80 | ≥ 80 | ≥ 80 | ≥ 80 | ≥ 80 | ≥ 80 | ≥ 80 |  | ≥ 80 |  | ≥ 80 | 
12 | C=C(C)CO/N=C(/C)c1cncc2nc(-n3ncnc3N)n(CC)c12 [Compound 178] | ≥ 80 | ≥ 80 | ≥ 80 | ≥ 80 | ≥ 80 | ≥ 80 | ≥ 80 | ≥ 80 | ≥ 80 | ≥ 80 |  |  |  | ≥ 80 | 
